SMILES strings stand for the structures. Counter-ions that a name gives are not always drawn. Bounds are passed on as bounds.

Assay [1] relates to HPK1 pSLP76 (Ser376). Nature of the assay: Cellular assay phospho-SLP-76 (Ser376). The format is cell-based, human. The settings on record: SLP76 Ser376 phosphorylation after αCD3/αCD28 stimulation; Jurkat (human) or EL-4 (mouse) cells, table does not say which; read-out: HPK1 pSLP76 IC50. The protocol: Cellular Assay—Phospho-SLP-76 (Ser376).
Inhibition of HPK1 enzymatic activity in cells was determined by detection of SLP76 phosphorylation at Ser376 residue in lysate from Jurkat (human) and EL-4 (mouse) cells. Jurkat and EL-4 cells express both HPK1 and SLP76 naturally. All cells were cultured in RPMI 1640 media containing 10% heat inactivated fetal bovine serum (FBS) and 1× Penicillin-Streptomycin. In either Jurkat or El-4 assay, cells were pre-incubated with test compounds prior to T cell stimulation by respective αCD3/αCD28 Dynabeads™. For detection, plates were read on the Envision and percent inhibition and IC50 were determined by Smart fit in Genedata Analyzer.
For Jurkat cells: 35 μL cell suspension were dispensed at a density of 30,000 cells/well in 384-well plates containing HBSS (Gibco, 14025076)+0.1% BSA). 10-point logarithmic serial dilution of test compounds in DMSO were prepared by a Hamilton automated liquid handling robot and 35 nL was transferred into each well by an Echo liquid handler. After 60 min. pre-incubation, the cells were stimulated by adding 5 μL human T activator αCD3/αCD28 Dynabeads™ (Gibco, 11132D) at 1.2×107 beads/ml for 15 minutes at 37° C. Detection of Ser376 phosphorylation status was accomplished by first adding 10 μL of 5× AlphaLISA lysis buffer (Perkin Elmer, ALSU-PSLP-A500) to each well of the cell plate using a Multidrop Combi (5840300), followed by 20 minutes shaking. 10 μL cell lysate from each treatment were then transferred to a white 384-well plate (Corning 3572) and incubated with AlphaLISA acceptor beads for one hour (AlphaLISA SureFire Ultra p-SLP76 (Ser376), Perkin Elmer, ALSU-PSLP-A500), and donor beads for additional 2 hours at room temperature in the dark. […]

Assay [2] addresses full-length human HPK1 (MAP4K1) (Homo sapiens (Human), UniProt Q92918). Kind of assay: HPK1 kinase assay (biochemical, ADP-Glo). The following applies: GST-HPK1 3.2 nM, 10 μM ATP, MBP substrate, ADP-Glo; read-out: HPK1 enzymatic IC50. From the text:
HPK1 kinase assay (Biochemical assay).
A recombinant fusion protein consisting of full-length human HPK1 (MAP4K1) with an N-terminal Glutatione S-transferase (GST) tag was produced in insect cells Sf21 using the baculovirus expression system. GST-HPK1 protein was purified from cell lysates by glutathione Sepharose affinity chromatography. The assay is run in three continuous steps: 1) the HPK1 enzymatic kinase reaction, 2) an ATP depletion, and 3) the ADP detection, the steps 2 and 3 are performed with ADP-Glo™ Kinase Assay kit from Promega (V9101). Test compounds were prepared by 10-point serial dilution in dimethyl sulfoxide (DMSO) and 100 nL of each dilution was spotted onto a 384-well Optiplate (Perkin Elmer and Cat #6007299) by Labcyte Echo. 5 μL kinase reaction buffer (0.02% Brij-35, 2 mM DTT, 50 mM HEPES pH 7.5, MgCl2 10 mM, BSA 0.01% and β-glycerophosphate 12.5 mM) containing HPK1 (3.2 nM) enzyme was transferred to each well and incubated for 15 minutes at room temperature at 60% humidity. The enzymatic reaction was started by adding 5 μl of Start-Mix (10 μM ATP and 3.235 μM MBP). After 120 minutes, the reaction was stopped by adding 5 μL of ADP-Glo reagent (Promega, V9101) and incubating for 40 min. in the dark at 23° C. To determine the level of ADP, 10 μl ADP-Glo Detection solution was added and incubated for 1 hour at 23° C. in the dark. The plate was transferred to a Perkin Elmer EnVision (2104 Multilabel Reader) for luminescence detection and percent inhibition activity and IC50 value were determined using Genedata Screener.
(ADP-Glo first removes unused ATP, then detects ADP through luciferase.)

Chain of full-length human HPK1 (MAP4K1) (Q92918 whole entry): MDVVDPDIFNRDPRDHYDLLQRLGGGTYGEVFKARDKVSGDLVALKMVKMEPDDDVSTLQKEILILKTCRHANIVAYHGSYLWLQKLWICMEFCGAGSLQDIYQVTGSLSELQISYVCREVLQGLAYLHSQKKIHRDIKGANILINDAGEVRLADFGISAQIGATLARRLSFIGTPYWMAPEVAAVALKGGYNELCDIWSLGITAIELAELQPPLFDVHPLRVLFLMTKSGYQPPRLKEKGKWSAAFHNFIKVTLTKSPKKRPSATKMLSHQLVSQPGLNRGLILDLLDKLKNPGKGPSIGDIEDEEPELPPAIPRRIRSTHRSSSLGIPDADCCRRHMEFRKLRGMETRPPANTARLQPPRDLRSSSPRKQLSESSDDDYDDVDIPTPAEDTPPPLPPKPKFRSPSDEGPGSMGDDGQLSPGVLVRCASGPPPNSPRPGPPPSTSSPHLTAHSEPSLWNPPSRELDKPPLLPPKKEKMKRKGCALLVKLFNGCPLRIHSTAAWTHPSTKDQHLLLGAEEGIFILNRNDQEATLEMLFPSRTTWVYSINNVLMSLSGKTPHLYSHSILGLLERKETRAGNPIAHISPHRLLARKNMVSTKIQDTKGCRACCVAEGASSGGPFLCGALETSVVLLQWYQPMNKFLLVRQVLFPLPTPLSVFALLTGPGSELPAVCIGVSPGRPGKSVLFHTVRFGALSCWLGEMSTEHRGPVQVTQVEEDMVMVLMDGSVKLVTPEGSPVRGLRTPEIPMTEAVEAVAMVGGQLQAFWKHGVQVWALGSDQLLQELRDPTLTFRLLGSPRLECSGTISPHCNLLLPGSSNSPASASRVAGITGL

In general, IC50 refers to the concentration at which inhibition is half-maximal. As to `NC(=O)c1cc(-c2ccc(CN3CCOCC3)cc2)nc2c(N[C@H]3CCCNC3)ncnc12` [Example 30, 6-[4-(morpholin-4-ylmethyl)phenyl]-4-[(3S)-piperidin-3-ylamino]pyrido[3,2-d]pyrimidine-8-carboxamide], the IC50 is less than 500 nM in assay [1] and less than 100 nM in assay [2].
In the same order, the values of `CCn1cc(-c2cc(C(N)=O)c3ncnc(N[C@@H]4CNC[C@@H](F)C4)c3n2)c(C)n1` [Example 9, 6-(1-ethyl-3-methyl-1H-pyrazol-4-yl)-4-(((3S,5S)-5-fluoropiperidin-3-yl)amino)pyrido[3,2-d]pyrimidine-8-carboxamide] are less than 500 nM and less than 100 nM.
As for `COc1ccccc1-c1cc(C(N)=O)c2ncnc(N[C@H]3CCCNC3)c2n1` [Example 72, 6-(2-methoxyphenyl)-4-[(3S)-piperidin-3-ylamino]pyrido[3,2-d]pyrimidine-8-carboxamide], the IC50 is greater than 1000 nM in assay [1] and less than 100 nM in assay [2].
With `NC(=O)c1cc(-c2ccc(CN3CC4CCC(C3)O4)cc2)nc2c(N[C@H]3CCCNC3)ncnc12` [Example 65, 6-(4-[8-oxa-3-azabicyclo [3.2.1]octan-3-ylmethyl]phenyl)-4-[(3S)-piperidin-3-ylamino]pyrido[3,2-d]pyrimidine-8-carboxamide], the IC50 in assay [1] is less than 500 nM; in assay [2], less than 100 nM.
Taken in the same sequence, the figures for `NC(=O)c1cc(-c2ccc(CN3CCO[C@H](C(F)(F)F)C3)cc2)nc2c(N[C@H]3CCCNC3)ncnc12` [Example 57, 4-[(3S)-piperidin-3-ylamino]-6-(4-[[(2S)-2(trifluoromethyl)morpholin-4-yl]methyl]phenyl) pyrido [3,2-d]pyrimidine-8-carboxamide] were less than 500 nM and less than 100 nM.
Taken in the same sequence, the figures for `CC(C)(O)C(F)(F)Oc1ccc(-c2cc(C(N)=O)c3ncnc(N[C@H]4CCCNC4)c3n2)cc1` [Example 47, (S)-6-(4-(1,1-difluoro-2-hydroxy-2-methylpropoxy)phenyl)-4-(piperidin-3-ylamino)pyrido[3,2-d]pyrimidine-8-carboxamide] were 500 to 1000 nM and less than 100 nM.
Consider `NC(=O)c1cc(-c2ccc(OCC3(O)CCCC3)cc2)nc2c(N[C@@H]3CNC[C@@H](F)C3)ncnc12` [Example 35, 4-(((3S,5S)-5-fluoropiperidin-3-yl)amino)-6-(4-((1-hydroxycyclopentyl)methoxy)phenyl)pyrido[3,2-d]pyrimidine-8-carboxamide], for which the IC50 in assay [1] is 500 to 1000 nM; in assay [2], less than 100 nM.
In the same order, the values of `C[C@@H]1CN(Cc2ccc(-c3cc(C(N)=O)c4ncnc(N[C@H]5CCCNC5)c4n3)cc2)CCO1` [Example 69, 6-(4-[[(2R)-2-methylmorpholin-4-yl]methyl]phenyl)-4-[(3S)-piperidin-3-ylamino]pyrido[3,2-d]pyrimidine-8-carboxamide dihydrochloride] are greater than 1000 nM and less than 100 nM.
For `COC(C)(C)COc1ccc(-c2cc(C(N)=O)c3ncnc(N[C@H]4CCCNC4)c3n2)cc1` [Example 61, 6-[4-(2-methoxy-2-methylpropoxy)phenyl]-4-[(3S)-piperidin-3-ylamino]pyrido[3,2-d]pyrimidine-8-carboxamide], the IC50 in assay [1] is less than 500 nM; in assay [2], less than 100 nM.
Taken in the same sequence, the figures for `NC(=O)c1cc(-c2ccc(N3CCC(O)C3)nc2)nc2c(N[C@@H]3CNC[C@@H](F)C3)ncnc12` (stereo partly drawn) [Example 32, 4-(((3S,5S)-5-fluoropiperidin-3-yl)amino)-6-(6-(3-hydroxypyrrolidin-1-yl)pyridin-3-yl)pyrido[3,2-d]pyrimidine-8-carboxamide] were greater than 1000 nM and less than 100 nM.
Regarding `NC(=O)c1cc(-c2ccc(CN3C4COCC3C4)cc2)nc2c(N[C@H]3CCCNC3)ncnc12` [Example 67, 6-(4-[3-oxa-6-azabicyclo [3.1.1]heptan-6-ylmethyl]phenyl)-4-[(3S)-piperidin-3-ylamino]pyrido[3,2-d]pyrimidine-8-carboxamide], the IC50 in assay [1] was greater than 1000 nM; in assay [2] it was less than 100 nM.

The record behind these values is patent US20250320228A1, “PYRIDO[3,2-D]PYRIMIDINES AS HPK1 INHIBITORS” (Merck Patent GmbH, priority 2022, published 2025).
